# Source: publication PMC10073488 (Frontiers in Pharmacology, 2023)
# Columns and labels:
# [1] = human, in vivo
# Method: There were two studies in the project. Study 1 was under the fasting state, and study 2 was under the fed state. […] The studies aimed to compare the PK profiles and safeties of the T and R drugs. The study protocols were approved by the Wuxi People’s Hospital Ethics Committee (Approval No. 2018LLPJ-I-14-03) and were conducted at Wuxi People’s Hospital Affiliated to Nanjing Medical University, Jiangsu Province, China. The studies were performed in accordance with the principles of the World Medical Association (WMA) Declaration of Helsinki. All volunteers signed written informed consents before enrollment.
# Subjects received a single oral dose of the T or R drug in each period in a randomized way under either fasting or fed conditions, with a wash-out of 7 days. For the fed study, subjects finished the high-fat diet (containing protein 16.52%, fat 56.85%, carbohydrate 26.63%) in 30 min and were given the drug with 240 ml of a 20% glucose solution in water 30 min after they started eating the diet. For the fasting study, the drug was administered with 240 ml of a 20% glucose solution in water under the fasting state. An overnight fast for at least 10 h before administration was required. Subjects were not allowed to drink water 1 h before and after dosing, and lunch could be served only 4 h after dosing for both studies.
# Venous blood samples (4 ml) were collected from an intravenous indwelling catheter before dosing and at 0.5, 1, 1.5, 2, 2.5, 3, 3.5, 4, 4.5, 5, 6, 7, 8, 9, 10, 11, 12, 14, 24, 32, 48, and 72 h after dosing for both fed and fasting studies. Blood samples were drawn into BD Vacutainers® with ethylene diamine tetra acetic acid (EDTA) anticoagulant. Plasma was separated by centrifugation at 2150 ± 5 g for 10 min at 2°C–8°C and stored at −20°C within 2 h after sampling and transferred to −80°C within 24 h.
# Study data were summarized by descriptive statistics. The statistical analyses were performed using SAS® version 9.4. For the comparisons, Cmax, AUC0–t, and AUC0–∞ were analyzed using linear mixed models after logarithmic transformation. […] was achieved if the 90% CI of each parameter geometric means ratio (GMR) test/reference fell between 0.8–1.25. The statistical analysis included treatment, period, sequence, and subject-within-sequence as fixed effects. Tmax was compared between treatments using the non-parametric Wilcoxon signed-rank test.
# [2] = set-up: method as in Schnaars et al., 2023; details: metformin 1000 mg, IR; fed condition; ref Schnaars et al., 2023; cited from earlier work
# [3] = sitagliptin, ref FDA, 2005, 2006, 2012; cited from earlier work
# [4] = Published BE studies of sitagliptin (100 mg) and sitagliptin–metformin (50/1000 mg) IR fixed-dose combination; type: in vivo; details: sitagliptin (100 mg) alone; fasting condition; published values (ref Schnaars et al., 2023) compared with own data
"Cmax, AUC0−t, AUC0−∞ higher than the data of this study [4]",SMILES,Intra-individual variation of AUC0-t [1],Intra-individual variation of AUC0-∞ [1],Intra-individual variation of Cmax [1],Cmax [2],median Tmax [2],t1/2 [3]
–,"CN(C)C(=N)N=C(N)N [Metformin, metformin]",13.01%,13.31%,11.61%,1.59289 ng/mL,3.5 h,–
14–32%,"N[C@@H](CC(=O)N1CCn2c(nnc2C(F)(F)F)C1)Cc1cc(F)c(F)cc1F [Sitagliptin, sitagliptin]",6.05%,6.04%,19.42%,–,–,around 12 h
